The source of these data is patent publication US11617726B2, “Method for preventing, treating, or ameliorating a microbial infection” (priority 2018, dated 2023).

The experiment relates to Multidrug Resistant Acinetobacter baumannii Isolates. Briefly: MIC of the micro-emulsions by broth dilution. The experiment is classed as cell-based. The procedure:
Nine sterile 7 mL PJ tubes were arranged in a rack in a row. Each tube contained one mL sterile MHB. Seven tubes were labeled as 7.847 mg+256 μg/mL, 3.923 mg+128 μg/mL, 1.961 mg+64 μg/mL, 0.980 mg+32 μg/mL, 0.490 mg+16 μg/mL, 0.245 mg+8 μg/mL and 0.122 mg+4 μg/mL. The eighth and ninth tubes were labeled as positive and negative controls, respectively.
The micro-emulsion made according to Example 1 was serially diluted to give two-fold dilutions as follows: one mL of the micro-emulsion of Example 1 was dispensed in the first tube (labeled as 7.847 mg+256 μg/mL) to give a concentration of 15.69 mg+512 μg drug/mL MHB. One mL of the first tube was added to the second tube (labeled as 3.923 mg+128 μg/mL) to give a concentration of 7.847 mg+256 μg drug/mL MHB. One mL of the second tube was transferred to the third tube (labeled as 1.961 mg+64 μg/mL) to give a concentration of 3.923 mg+128 drug/mL MHB. One mL of the third tube was added to the fourth tube (labeled as 0.980 mg+32 μg/mL) to give a concentration of 1.961 mg+64 drug/mL MHB. One mL of the fourth tube was dispensed in the fifth tube (labeled as 0.490 mg+16 μg/mL) to give a concentration of 0.980 mg+32 drug/mL MHB. One mL of the fifth tube was dispensed in the sixth tube (labeled as 0.245 mg+8 μg/mL) to give a concentration of 0.490 mg+16 μg drug/mL MHB. One mL of the sixth tube was added to the seventh tube (labeled as 0.122 mg+4 μg/mL) to give a concentration of 0.245 mg+8 μg drug/mL MHB. One mL of the content of the seventh tube was discarded. Inoculum suspensions (at 1-2×10^8 CFU/mL) were diluted 1:100 in MHB to obtain 1×10^6 CFU/mL. One mL of the diluted inoculum suspension (1×10^6 CFU/mL) was transferred to each tube except tube number nine.
Another nine sterile 7 mL PJ tubes were arranged in a rack in a row. Each tube contained one mL sterile MHB. […]
All inoculated tubes were incubated for 16-20 hours at 37° C. aerobically. After this incubation period, MIC was determined manually by observing the lowest concentration of antimicrobial agent showing no visible growth (turbidity). […]
(In general: In broth dilution the organism is exposed to a series of concentrations in liquid medium.)

What is called MIC is the least concentration at which growth counts as inhibited.

`CC1=CC(=O)C(C(C)C)=CC1=O` [Thymoquinone, 2-isopropyl-5-methylbenzo-1,4-quinone]: the MIC reads like this: (Isolate 121) 64 µg/mL; (Isolate 127) 32 µg/mL; (Isolate 129) 32 µg/mL.
